Consider two molecules from patent publication US9181294B2, “Nucleoside analogues for the treatment of a viral infection, and method for evaluating the sensitivity to said treatment” (priority 2011, dated 2015).

Data set [1] concerns HIV-1 pNL-4.3 clone (pNL4-3 wild type). Put plainly: Antiviral test in HeLa-P4 cells (single cycle, CPRG beta-galactosidase test). It counts as cell-based. On the procedure:
HeLa-P4 cells are HeLa CD4 LTR-LacZ cells in which the expression of LacZ is induced by the trans-activating Tat protein of HIV, making it possible to precisely quantify the HIV-1 infectivity from a single replication cycle. HeLa-CD4 cells growing exponentially at a density of 1×10^4/ml are placed in 96-well plates and infected on the following day with 3 ng of HIV p24 antigen in the presence of various concentrations of compounds.
(§1) The titres for a single cycle of the virus were determined in HeLa-P4 cells. The cells were infected, in duplicate, in 96-well plates, with the HIV-1 pNL-4.3 clone (equivalent to 3 ng of p24 antigen). The titres for a single cycle of the viruses were determined 48 hours after infection by quantifying the beta-galactosidase activity in P4 lysates by means of a colorimetric test (CPRG test) based on cleavage of chlorophenol red-beta-D-galactopyranoside (CPRG) by beta-galactosidase. The 50% inhibitory concentration (IC50) was determined as the concentration of compound A providing 50% inhibition of beta-galactosidase levels compared with the untreated infected cells.
The antiviral activity of compound A according to the invention was evaluated using an amount of HIV corresponding to 3 ng of p24 antigen.
(§2) Compound A according to the invention was tested on the pNL4-3 virus optionally modified by site-directed mutagenesis, comprising or not comprising (wt) the mutations located in the reverse transcriptase gene and associated with resistance to the main NRTIs used in clinical practice. Tables 1A to 1C below group together the resistance indices of compound A according to the invention on the viruses with and without mutation.
(§3) The resistance index of a mutant represents the ratio of the concentration of compound capable of inhibiting by half (IC50) the growth of the mutant virus tested, to the concentration of compound capable of inhibiting by half (IC50) the growth of the wild-type virus.

The test system of the next data set is pNL4-3 Q184H. Nature of the data set: Resistance index on pNL4-3 virus modified by site-directed mutagenesis. It counts as cell-based, HIV-1. Conditions: Table 1C; integrase-inhibitor-resistance mutant Q184H; ratio IC50 mutant / IC50 wild type.
The test system of the next data set is LAI viruses in MT2 cells. Nature of the data set: Antiviral test in MT2 cells (viral load on day 3). In kind it is cell-based, HIV-1. As to conditions: Human immunodeficiency virus 1; MT2 cells infected with LAI viruses. On the procedure: The MT2 cells were concentrated at 3×10^6/ml and infected with 10^7 viruses (LAI). The cells were distributed into 96-well plates (1×10^5/well) and incubated in the presence of various concentrations of compound A (in quadruplicate). The viral loads were determined on day 3 (Cobas AmpliPrep/Cobas TaqMan (CTM) HIV-1 v2 test).
Compound A was tested on MT2 cells infected with LAI viruses.

The test system of data set [2] is Lai virus in MT2 cells, extracellular viral RNA. Nature of the data set: Inhibition of viral RNA production in culture medium (Cobas TaqMan HIV-1 v2 test). In kind it is cell-based. On the procedure: (§4) The MT2 cells were concentrated at 15×10^6/ml and incubated for 2 h with 10 or 25 μM of compound A. The Lai virus is then added at a multiplicity of infection of 0.01 for 1 h. The cells are washed and then incubated in culture medium containing 10 or 25 μM of the compound to be tested. A sample of 1×10^6 cells is taken at various times and the viral DNA is quantified by means of a Taqman real-time PCR method. The viral RNA loads are quantified in the culture medium (Cobas AmpliPrep/Cobas TaqMan (CTM) HIV-1 v2 test).
For orientation: Quantitative PCR measures a nucleic acid by following its amplification.

Data set [3] relates to Lai virus in MT2 cells, intracellular viral DNA. Nature of the data set: Inhibition of double-stranded proviral DNA production (Taqman real-time PCR). In kind it is cell-based, HIV-1. As to conditions: 10 or 25 μM of compound, FIG. 2. On the procedure:
as §4

A short description of another data set: in vitro. As to conditions: read-out: CC50 (50% cytotoxic concentration). In kind it is cell-based. On the procedure:
A cell viability test measuring the absorbance at 560 and 690 nm using the yellow tetrazolium […] [3-(4,5-dimethyl-2-thiazolyl)-2,5-diphenyltetrazolium bromide] reagent was carried out with the tetrabenzoyladenosine in the HeLa-CD4, Vero, FH, MT2 and SupT1 cell lines.
Using various cell types (HeLa-CD4, Vero, FH, MT2 and SupT1), the CC50 (50% cytotoxic concentration) of compound A was measured at more than 100 μM in all cases.

Another data set has as its system pNL4-3 N155H. It counts as cell-based, HIV-1.
A further data set concerns pNL4-3 G140S-Q184H. Put plainly: Resistance index on pNL4-3 virus modified by site-directed mutagenesis. It counts as cell-based, HIV-1. Conditions: Table 1C; integrase-inhibitor-resistance mutant G140S-Q184H; ratio IC50 mutant / IC50 wild type. The method, then: as §1, §2
The resistance index of a mutant represents the ratio of the concentration of compound capable of inhibiting by half (IC50) the growth of the mutant virus tested, to the concentration of compound capable of inhibiting by half (IC50) the growth of the wild-type virus. […]

The subject of another data set is pNL4-3 K65R. It counts as cell-based, HIV-1. On the procedure:
as §1, §2, §3
(§5) A resistance index greater than approximately 1.5 or 2 signifies that the viral strain is resistant to the treatment.

The next data set deals with pNL4-3 M41L-L210W-T215Y. It counts as cell-based, HIV-1. The method, then: as §1, §2, §3, §5
In data set [4] the test system is pNL4-3 M184V-M41L-L210W-T215Y. It counts as cell-based, HIV-1. The method, then: as §1, §2, §3, §5
The next data set concerns pNL4-3 E138K. It counts as cell-based, HIV-1. The method, then: as §1, §2, §3, §5
The next data set relates to pNL4-3 M184V. It counts as cell-based, HIV-1. On the procedure:
as §1, §2, §3, §5

In another data set the test system is pNL4-3 K103N. It counts as cell-based, HIV-1. On the procedure:
as §1, §2, §3, §5

In the next data set the test system is pNL4-3 K65R-M184V. In kind it is cell-based, HIV-1. On the procedure: as §1, §2, §3, §5
Another data set concerns pNL4-3 T215Y. It counts as cell-based, HIV-1. On the procedure:
as §1, §2, §3, §5

The mark [5] stands for this setting: amount of HIV corresponding to 3 ng of p24 antigen.

Read-outs that look alike come from different tables or passages of the source. Bounds are passed on as bounds.

For the molecule `O=C(Nc1ncnc2c1ncn2[C@@H]1O[C@H](CO)[C@H](OC(=O)c2ccccc2)[C@@H]1OC(=O)c1ccccc1)c1ccccc1` [reference compound], the “Viral production (10 μM of compound)” value in [1] (setting [5]) amounted to 109%.

By IC50 is commonly meant the midpoint of a concentration-inhibition curve. The low end stands for inhibition by little substance, the high end for a need for much substance. Consider `O=C(O[C@@H]1[C@H](OC(=O)c2ccccc2)[C@H](n2cnc3c(N(C(=O)c4ccccc4)C(=O)c4ccccc4)ncnc32)O[C@@H]1CO)c1ccccc1` (stereo in doubt) [compound A, N^6,N^6,O^2′,O^3′-tetrabenzoyladenosine], for which the Resistance index is on record as 0.88 with pNL4-3 Q184H; 1 in [1] ({}); 1.04 in the data set on pNL4-3 N155H; 0.99 with pNL4-3 G140S-Q184H; 0.89 in the data set with pNL4-3 E138K; 1 in the data set with pNL4-3 K103N. Moreover, the half-inhibitory concentration (IC50) with LAI viruses in MT2 cells is 1.6 µM; in data set [1] (Human immunodeficiency virus 1, HeLaP4, amount of HIV corresponding to 3 ng of p24 antigen, FIG. 1), 1 to 2 µM. For the same molecule, the “production of the extracellular viral RNA” value in data set [2] (10 or 25 μM of compound, FIG. 3) is listed as “inhibited”. In data set [2] (FIGS. 2 and 3), the “inhibition of the viral load, comparison with AZT (zidovudine)” value is “clear superiority”. Further, in data set [1] (setting [5]), the “Viral production (10 μM of compound)” value was determined as 0%. Also, the “Resistance index (fold change)” value in data set [1] ({}) turned out to be 1 fold change; in the data set on pNL4-3 K65R, 0.92 fold change; with pNL4-3 M41L-L210W-T215Y, 0.38 fold change; in data set [4], 0.58 fold change; in the data set with pNL4-3 M184V, 0.99 fold change; in the data set on pNL4-3 K65R-M184V it was 1.07 fold change. Moreover, the “Resistance index (fold change)” value with pNL4-3 T215Y amounted to 0.41 fold change. Besides, the “appearance of the intracellular viral DNA” value in [3] is listed as “inhibited”. In addition, the CC50 in “in vitro” (African green monkey, Vero cells) is over 100 µM; in “in vitro” (FH cells) it was over 100 µM; in “in vitro” (human, HeLa-CD4 cells), over 100 µM; in “in vitro” (human, MT2 cells), over 100 µM; in the data set “in vitro” (human, SupT1 cells), over 100 µM.
